Experiment [1] concerns the target T1, Pyruvate kinase PKM (Homo sapiens, UniProt P14618). The experiment can be described thus: Activation of PKM2 in human NCI-H1299 cells. It is filed as cell-based.
Target sequence in this assay (P14618 2-531 limits assumed): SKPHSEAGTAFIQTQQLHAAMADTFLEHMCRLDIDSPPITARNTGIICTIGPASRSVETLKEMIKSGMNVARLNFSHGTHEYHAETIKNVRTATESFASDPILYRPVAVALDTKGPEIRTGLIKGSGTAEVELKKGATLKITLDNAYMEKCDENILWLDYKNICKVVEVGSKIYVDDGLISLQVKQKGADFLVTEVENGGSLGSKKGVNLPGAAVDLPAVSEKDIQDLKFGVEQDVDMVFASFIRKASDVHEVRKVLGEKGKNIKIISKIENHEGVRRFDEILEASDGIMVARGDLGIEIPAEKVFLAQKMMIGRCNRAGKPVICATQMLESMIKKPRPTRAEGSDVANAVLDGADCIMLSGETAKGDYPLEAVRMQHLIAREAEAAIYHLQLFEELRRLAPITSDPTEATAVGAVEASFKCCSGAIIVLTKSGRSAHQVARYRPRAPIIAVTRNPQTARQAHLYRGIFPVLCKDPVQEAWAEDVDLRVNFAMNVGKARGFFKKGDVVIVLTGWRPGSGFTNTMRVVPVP
In experiment [2] the target is T1, Pyruvate kinase PKM. The experiment can be described thus: Activation of PKM2 (unknown origin) assessed as PEP conversion to pyruvate measured as concentration required for 50% activation by luminescence assay.
Target sequence in this assay (P14618 whole entry): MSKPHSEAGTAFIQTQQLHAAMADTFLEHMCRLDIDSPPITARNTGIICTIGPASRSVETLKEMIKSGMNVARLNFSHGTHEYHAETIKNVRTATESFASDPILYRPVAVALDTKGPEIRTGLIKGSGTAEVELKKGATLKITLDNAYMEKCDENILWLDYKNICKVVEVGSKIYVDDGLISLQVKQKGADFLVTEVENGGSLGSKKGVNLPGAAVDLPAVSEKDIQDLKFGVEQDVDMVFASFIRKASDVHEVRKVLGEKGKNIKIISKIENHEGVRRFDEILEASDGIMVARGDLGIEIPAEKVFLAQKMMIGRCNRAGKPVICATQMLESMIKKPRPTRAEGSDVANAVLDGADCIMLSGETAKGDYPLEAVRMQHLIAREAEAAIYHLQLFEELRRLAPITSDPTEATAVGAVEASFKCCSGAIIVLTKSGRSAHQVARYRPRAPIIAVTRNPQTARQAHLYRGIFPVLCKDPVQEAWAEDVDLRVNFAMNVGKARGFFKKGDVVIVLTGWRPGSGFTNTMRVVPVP
Experiment [3] has as its target T1, Pyruvate kinase PKM. The experiment can be described thus: Activation of PKM2 in human A549 cells. It is filed as cell-based.
Target sequence in this assay (P14618 2-531 limits assumed): as the sequence (P14618 2-531 limits assumed) above

Our source for the Activity and AC50 values is ChEMBL document CHEMBL3102764, “Discovery of 3-(trifluoromethyl)-1H-pyrazole-5-carboxamide activators of the M2 isoform of pyruvate kinase (PKM2)” (Bioorg Med Chem Lett, 2014).

Molecules are shown by their SMILES.

As to `O=C(c1cc(Br)n[nH]1)N(Cc1ccc(O)cc1F)CC1CCC1`, the values for the Activity on Pyruvate kinase PKM [1] and at Pyruvate kinase PKM [3] were 0.055 µM and 0.06 µM, respectively. Moreover, the AC50 at Pyruvate kinase PKM [2] (read-out: AC50) came out at 0.034 µM.

For the compound `O=C(c1cc(Br)c[nH]1)N(Cc1cccc(F)c1)CC1CCC1`, the AC50 at Pyruvate kinase PKM [2] (read-out: AC50) worked out at 3.85 µM.

Consider `O=C(c1cc(Br)c[nH]1)N(Cc1ccc(Cl)cc1)CC1CCC1`, for which the AC50 entry on Pyruvate kinase PKM [2] is given as “Not Active”.

In the case of `O=C(c1cc(Br)c[nH]1)N(Cc1ccccc1)CC1CCC1`, the AC50 on Pyruvate kinase PKM [2] (read-out: AC50) came out at 2.3 µM.

As to `O=C(c1cc(Br)c[nH]1)N(Cc1ccccc1O)CC1CCC1`, the AC50 at Pyruvate kinase PKM [2] (read-out: AC50) stood at 1.29 µM.

For `O=C(c1cc(Br)c[nH]1)N(Cc1ccccc1F)CC1CCC1`, at Pyruvate kinase PKM [2] (read-out: AC50), the AC50 came to 3.9 µM.

`O=C(c1cc(Cl)n[nH]1)N(Cc1cccc2[nH]ccc12)CC1CCC1`: the half-maximal activity concentration (AC50) on Pyruvate kinase PKM [2] (read-out: AC50) is 0.757 µM. The compound also registered an Activity on Pyruvate kinase PKM [3] of 6.73 µM.

In the case of `CCCCCN(Cc1ccccc1)C(=O)c1cc(Br)c[nH]1`, the AC50 at Pyruvate kinase PKM [2] (read-out: AC50) amounted to 4.45 µM.

`CCN(Cc1ccccc1)C(=O)c1cc(Br)c[nH]1`: the AC50 result on Pyruvate kinase PKM [2] was “Not Active”.

On to `N#Cc1cc(C(=O)N(Cc2ccc(O)cc2F)CC2CCC2)[nH]n1`, for which the concentration at half-maximal activity (AC50) at Pyruvate kinase PKM [2] (read-out: AC50) amounted to 4.47 µM.

On to `O=C(c1cc(Cl)n[nH]1)N(Cc1ccc(O)cc1F)CC1CCC1`, for which the Activity on Pyruvate kinase PKM [1] was 0.3 µM; on Pyruvate kinase PKM [3], 0.45 µM.

Turning to `O=C(c1cc(Br)n[nH]1)N(Cc1cccc2[nH]cnc12)CC1CCC1`, the Activity on Pyruvate kinase PKM [1] is 1.42 µM; at Pyruvate kinase PKM [3] it was 1.99 µM.

Consider `O=C(c1cc(Br)c[nH]1)N(Cc1ccc(F)cc1)CC1CCC1`, for which the AC50 on Pyruvate kinase PKM [2] (read-out: AC50) is 12.1 µM.

As to `O=C(c1cc(Br)c[nH]1)N(Cc1ccc(O)cc1F)CC1CCC1`, the AC50 on Pyruvate kinase PKM [2] (read-out: AC50) came out at 0.75 µM.

For `Nc1cc(C(=O)N(Cc2ccc(O)cc2F)CC2CCC2)[nH]n1`, the AC50 on Pyruvate kinase PKM [2] (read-out: AC50) is above 30 µM.

In the case of `O=C(c1cc(Br)n[nH]1)N(Cc1cccc2[nH]c(=O)sc12)CC1CCC1`, the Activity at Pyruvate kinase PKM [1] came to 16.6 µM; on Pyruvate kinase PKM [3], 12.9 µM. In addition, the concentration at half-maximal activity (AC50) at Pyruvate kinase PKM [2] (read-out: AC50) turned out to be 3.05 µM.

In the case of `O=C(NCc1ccccc1)c1cc(Br)c[nH]1`, the half-maximal activity concentration (AC50) on Pyruvate kinase PKM [2] (read-out: AC50) amounted to 36 µM.

For `O=C(c1cc(Br)c[nH]1)N(Cc1ccccc1)CC1CCCC1`, the AC50 result on Pyruvate kinase PKM [2] is reported as “Not Active”.

Consider `N#Cc1ccc(CN(CC2CCC2)C(=O)c2cc(Br)c[nH]2)cc1`, for which the AC50 result at Pyruvate kinase PKM [2] was “Not Active”.

Regarding `O=C(c1cc(Br)n[nH]1)N(Cc1cccc2[nH]ncc12)CC1CCC1`, the AC50 on Pyruvate kinase PKM [2] (read-out: AC50) was found to be 3.13 µM.

Take `CCCCN(Cc1ccccc1)C(=O)c1cc(Br)c[nH]1`: the AC50 at Pyruvate kinase PKM [2] (read-out: AC50) was 6.33 µM.

Take `O=C(c1cc(Br)c[nH]1)N(Cc1cccc(O)c1)CC1CCC1`: on Pyruvate kinase PKM [2] (read-out: AC50), the AC50 was 3.03 µM.

In the case of `Nc1ccc(CN(CC2CCC2)C(=O)c2cc(Br)c[nH]2)cc1`, the AC50 entry at Pyruvate kinase PKM [2] is “Not Active”.

As to `O=C(c1cc(Br)c[nH]1)N(Cc1ccccc1)CC1CC1`, at Pyruvate kinase PKM [2] (read-out: AC50), the AC50 came out at 12.2 µM.

For the compound `O=C(c1cc(Cl)n[nH]1)N(Cc1cccc2[nH]ncc12)CC1CCC1`, the Activity came out at 6.4 µM on Pyruvate kinase PKM [1] and 5.94 µM at Pyruvate kinase PKM [3]. On Pyruvate kinase PKM [2] (read-out: AC50), the AC50 turned out to be 2.93 µM.

For the compound `CCCN(Cc1ccccc1)C(=O)c1cc(Br)c[nH]1`, the half-maximal activity concentration (AC50) at Pyruvate kinase PKM [2] (read-out: AC50) came to 6 µM.

Regarding `O=C(c1cc(C(F)(F)F)n[nH]1)N(Cc1ccc(O)cc1F)CC1CCC1`, the Activity at Pyruvate kinase PKM [1] was found to be 0.22 µM; on Pyruvate kinase PKM [3], 0.26 µM.

Turning to `O=C(c1cc(Br)c[nH]1)N(Cc1ccc(O)cc1)CC1CCC1`, the AC50 on Pyruvate kinase PKM [2] (read-out: AC50) was found to be 1.71 µM.

Regarding `COc1ccc(CN(CC2CCC2)C(=O)c2cc(Br)c[nH]2)cc1`, the AC50 entry at Pyruvate kinase PKM [2] is on record as “Not Active”.

Regarding `O=C(c1cc(C(F)(F)F)n[nH]1)N(Cc1cccc2[nH]ccc12)CC1CCC1`, the values for the Activity on Pyruvate kinase PKM [1] and on Pyruvate kinase PKM [3] were 0.364 µM and 0.308 µM, respectively.

Turning to `O=C(c1cc(Br)c[nH]1)N(Cc1ccccc1)CC1CCCCC1`, on Pyruvate kinase PKM [2], the concentration at half-maximal activity (AC50) entry is on record as “Not Active”.
